A short description of data set [1]: Molar enthalpy of transition or fusion. To be noted: Crystal; DSC.
The conditions of data set [2]: Crystal; DTA.

± gives the expanded uncertainty stated by the source.

With `Cc1cc(C)[nH]n1` [3,5-dimethylpyrazole], in data set [1], the “Molar enthalpy of transition or fusion” value was 3.94 ± 0.21 kcal/mol. Also, the Normal melting temperature in data set [2] is 108.60 ± 0.5 °C.

For the origin of these results see the NIST ThermoML archive (doi:10.1016/j.jct.2017.02.011).
